We go through 13 molecules from patent US11840533B2, “Pyridinone-based epigenetic modifiers and uses thereof” (THE BOARD OF TRUSTEES OF THE UNIVERSITY OF ILLINOIS, priority 2017, dated 2023).

In the first assay the test system is fulvestrant-resistant MCF7:5C-FR cells. Kind of assay: Fulvestrant-resistant breast cancer cell viability (cell proliferation) assay. The format is cell-based. The note with it: 120 h, growth inhibition in fulvestrant-resistant MCF-7:CFR cells, 120 hrs. The method, then: For the cell proliferation assay, the fulvestrant-resistant MCF7:5C-FR cells were seeded at about 2000 to about 2500/well in 96-well plates. The next day, compounds were add to the cells at desired serial concentrations form 3 nM to 10 uM. A final 0.1% (v/v) DMSO was used as vehicle control and 1 uM JQ1 was used as positive. The cell were grown in the normal culture condition for 120 hrs. Then the Hoechst 33342 dye were add to each well at a final concentration of 5 μg/ml, and put back to the incubator at 37 C for 90 min. The plates were scanned immediately after the incubation with Celigo (Nexcelcom Biocesnse) for the fluorescence of the nuclear using DAPI channel, and the cell number was counted thought the analysis function of the Celigo software. The normalized cell number to the vehicle control was used to represent the cell proliferation. […] N.D.=Not determined.
As for `CCS(=O)(=O)Nc1cc(-c2cn(CCCl)c3c(O)nccc23)cc2c1ccn2Cc1ccc(F)cc1` [Compound 80, N-(6-(1-(2-chloroethyl)-7-hydroxy-1H-pyrrolo[2,3-c]pyridin-3-yl)-1-(4-fluorobenzyl)-1H-indol-4-yl)ethanesulfonamide], the IC50 is more than 100 nM.
With `Cc1cc(F)ccc1Cn1ccc2cc(NS(C)(=O)=O)cc(-c3cn(C)c4c(O)nccc34)c21` [Compound 21, N-(1-(4-fluoro-2-methylbenzyl)-7-(7-hydroxy-1-methyl-1H-pyrrolo[2,3-c]pyridin-3-yl)-1H-indol-5-yl)methanesulfonamide], the midpoint of inhibition, the IC50, lay at 3500 nM.
Still for that read-out and setting: as for `CNS(=O)(=O)CCc1ccc(OC)cc1C(=O)c1cn(C)c2c(O)nccc12` [Compound 15, 2-(2-(7-hydroxy-1-methyl-1H-pyrrolo[2,3-c]pyridine-3-carbonyl)-4-methoxyphenyl)-N-methylethane-1-sulfonamide], the figure is more than 1000 nM; as for `Cn1cc(-c2c[nH]c3ccc(Br)cc23)c2ccnc(O)c21` [Compound 19, 3-(5-bromo-1H-indol-3-yl)-1-methyl-1H-pyrrolo[2,3-c]pyridin-7-ol], more than 1000 nM.
Consider `CCS(=O)(=O)c1cccc2c1cc(-c1cn(C)c3c(O)nccc13)n2[C@@H](c1ccccc1)C1CCOCC1` [Compound 121, (R)-3-(4-(ethylsulfonyl)-1-(phenyl(tetrahydro-2H-pyran-4-yl)methyl)-1H-indol-2-yl)-1-methyl-1H-pyrrolo[2,3-c]pyridin-7-ol], for which the IC50 is less than 1000 nM.
Consider `CCS(=O)(=O)Nc1cccc2c1nc(-c1cn(C)c3c(O)nccc13)n2Cc1ccccc1C(F)(F)F` [Compound 62, N-(2-(7-hydroxy-1-methyl-1H-pyrrolo[2,3-c]pyridin-3-yl)-1-(2-(trifluoromethyl)benzyl)-1H-benzo[d]imidaol-4-yl)ethanesulfonamide], for which the IC50 was more than 100 nM.
With `CCS(=O)(=O)Nc1cc(-c2cn(C)c3c(O)nccc23)cc2c1ccn2Cc1ccc(Cl)c(Cl)c1` [Compound 50, N-(1-(3,4-dichlorobenzyl)-6-(7-hydroxy-1-methyl-1H-pyrrolo[2,3-c]pyridin-3-yl)-1H-indol-4-yl)ethanesulfonamide], the IC50 is less than 1000 nM.
With `CCS(=O)(=O)Nc1cc(-c2cn(CCCl)c3c(O)nccc23)cc2c1ccn2Cc1ccc(C#N)cc1` [Compound 86, N-(6-(1-(2-chloroethyl)-7-hydroxy-1H-pyrrolo[2,3-c]pyridin-3-yl)-1-(4-cyanobenzyl)-1H-indol-4-yl)ethanesulfonamide], the concentration for half-maximal inhibition (IC50) was less than 1000 nM.
On the same count and under the same terms, the result for `Cn1cc(-c2cc(C(C)(C)O)c3ccn(C(C)(c4cnccn4)c4cnccn4)c3c2)c2cc[nH]c(=O)c21` [Compound 109, 3-(1-(1,1-di(pyrazin-2-yl)ethyl)-4-(2-hydroxypropan-2-yl)-1H-indol-6-yl)-1-methyl-1,6-dihydro-7H-pyrrolo[2,3-c]pyridin-7-one] reads less than 1000 nM.
The same measure, in the same setting: the result for `CCS(=O)(=O)Nc1cc(-c2cn(C)c3c(O)nccc23)cc2c1ccn2Cc1cccc(Cl)c1Cl` [Compound 47, N-(1-(2,3-dichlorobenzyl)-6-(7-hydroxy-1-methyl-1H-pyrrolo[2,3-c]pyridin-3-yl)-1H-indol-4-yl)ethanesulfonamide] reads less than 1000 nM; that for `CCC(=O)N(c1cc(-c2cn(C)c3c(=O)[nH]ccc23)cc2c1ccn2Cc1c(C)cccc1Cl)C1CC1` [Compound 78, N-(1-(2-chloro-6-methylbenzyl)-6-(7-hydroxy-1-methyl-1H-pyrrolo[2,3-c]pyridin-3-yl)-1H-indol-4-yl)-N-cyclopropylpropionamide], more than 100 nM.
In the case of `Cn1cc(-c2cc3c(C(C)(C)O)cccc3n2[C@@H](c2ccccc2)C2CCOCC2)c2ccnc(O)c21` [Compound 116, (R)-3-(4-(2-hydroxypropan-2-yl)-1-(phenyl(tetrahydro-2H-pyran-4-yl)methyl)-1H-indol-2-yl)-1-methyl-1H-pyrrolo[2,3-c]pyridin-7-ol], the IC50 was less than 1000 nM.

The assay is the same for the next values; noted with them: growth inhibition in fulvestrant-resistant MCF-7:CFR cells, 120 hrs.
The molecule “N-(1-benzhydryl-6-(1-methyl-7-oxo-6,7-dihydro-1H-pyrrolo[2,3-c]pyridin-3-yl)-1H-indol-4-yl)ethanesulfonamide [Compound 130]” yielded a 50% inhibitory concentration (IC50) of less than 100 nM.
